Tested on: plants
Test: Test D post-emergence, other plants of Tables D2 and D4
Type: in vivo
Conditions: post-emergence
Procedure: A formulation containing 50 g/L of the test chemical was prepared by dissolving the active ingredient in a mixture of organic solvents and emulsifier, details of which are provided in the table. This formulation was then mixed with a small, variable amount of acetone to aid dissolution, before addition of a 0.2% v/v aqueous solution of an adjuvant, as the aqueous diluent, to form an aqueous spray solution which contains a predetermined concentration of the active ingredient.
This aqueous spray solution was then sprayed onto plants including maize and wheat that had been seed treated with a herbicide safener, after one day's cultivation (for pre-emergence) or after about 12 days' cultivation (for post-emergence). The plants were grown from seeds sown in standard soil, placed in a glasshouse under controlled conditions (at 24/18° C. or 20/16° C., day/night; 16 h light; 65% humidity). After spray application the plants were then grown in a glasshouse under the same conditions and watered twice daily. After 15 d for post-emergence and 20 DAA for pre-emergence the test was evaluated (100=total damage to plant; 0=no damage to plant).

In the case of CN1CC(c2cc(C(F)(F)F)n(C)n2)C(C(=O)Nc2cccc(F)c2F)C1=O (racemic) [Compound 3], the “damage to plant (100=total damage to plant; 0=no damage to plant), ABUTH” value (rate 130, evaluated after 15 d) was 0, the “damage to plant (100=total damage to plant; 0=no damage to plant), ABUTH” value (rate 250, evaluated after 15 d) was 0 and the “damage to plant (100=total damage to plant; 0=no damage to plant), ABUTH” value (rate 500, evaluated after 15 d) was 0. The “damage to plant (100=total damage to plant; 0=no damage to plant), AMARE” value (rate 130, evaluated after 15 d) was 0, the “damage to plant (100=total damage to plant; 0=no damage to plant), AMARE” value (rate 250, evaluated after 15 d) was 0 and the “damage to plant (100=total damage to plant; 0=no damage to plant), AMARE” value (rate 500, evaluated after 15 d) was 10. For the same molecule, the “damage to plant (100=total damage to plant; 0=no damage to plant), BIDPI” value (rate 130, evaluated after 15 d) was 0, the “damage to plant (100=total damage to plant; 0=no damage to plant), BIDPI” value (rate 250, evaluated after 15 d) was 0 and the “damage to plant (100=total damage to plant; 0=no damage to plant), BIDPI” value (rate 500, evaluated after 15 d) was 0. For the same molecule, the “damage to plant (100=total damage to plant; 0=no damage to plant), BRAPL” value (rate 130, evaluated after 15 d) was 40, the “damage to plant (100=total damage to plant; 0=no damage to plant), BRAPL” value (rate 250, evaluated after 15 d) was 60 and the “damage to plant (100=total damage to plant; 0=no damage to plant), BRAPL” value (rate 500, evaluated after 15 d) was 70. The “damage to plant (100=total damage to plant; 0=no damage to plant), CYPES” value (rate 130, evaluated after 15 d) was 0, the “damage to plant (100=total damage to plant; 0=no damage to plant), CYPES” value (rate 250, evaluated after 15 d) was 0 and the “damage to plant (100=total damage to plant; 0=no damage to plant), CYPES” value (rate 500, evaluated after 15 d) was 10. The “damage to plant (100=total damage to plant; 0=no damage to plant), DIGSA” value (rate 130, evaluated after 15 d) was 0, the “damage to plant (100=total damage to plant; 0=no damage to plant), DIGSA” value (rate 250, evaluated after 15 d) was 10 and the “damage to plant (100=total damage to plant; 0=no damage to plant), DIGSA” value (rate 500, evaluated after 15 d) was 60. For the same molecule, the “damage to plant (100=total damage to plant; 0=no damage to plant), ECHCG” value (rate 130, evaluated after 15 d) was 40, the “damage to plant (100=total damage to plant; 0=no damage to plant), ECHCG” value (rate 250, evaluated after 15 d) was 60 and the “damage to plant (100=total damage to plant; 0=no damage to plant), ECHCG” value (rate 500, evaluated after 15 d) was 80. The “damage to plant (100=total damage to plant; 0=no damage to plant), ELEIN” value (rate 130, evaluated after 15 d) was 0, the “damage to plant (100=total damage to plant; 0=no damage to plant), ELEIN” value (rate 250, evaluated after 15 d) was 0 and the “damage to plant (100=total damage to plant; 0=no damage to plant), ELEIN” value (rate 500, evaluated after 15 d) was 0. The “damage to plant (100=total damage to plant; 0=no damage to plant), EPHHL” value (rate 130, evaluated after 15 d) was 0, the “damage to plant (100=total damage to plant; 0=no damage to plant), EPHHL” value (rate 250, evaluated after 15 d) was 0 and the “damage to plant (100=total damage to plant; 0=no damage to plant), EPHHL” value (rate 500, evaluated after 15 d) was 0. The “damage to plant (100=total damage to plant; 0=no damage to plant), GLXMA” value (rate 130, evaluated after 15 d) was 10, the “damage to plant (100=total damage to plant; 0=no damage to plant), GLXMA” value (rate 250, evaluated after 15 d) was 10 and the “damage to plant (100=total damage to plant; 0=no damage to plant), GLXMA” value (rate 500, evaluated after 15 d) was 20. For the same molecule, the “damage to plant (100=total damage to plant; 0=no damage to plant), IPOHE” value (rate 130, evaluated after 15 d) was 0, the “damage to plant (100=total damage to plant; 0=no damage to plant), IPOHE” value (rate 250, evaluated after 15 d) was 0 and the “damage to plant (100=total damage to plant; 0=no damage to plant), IPOHE” value (rate 500, evaluated after 15 d) was 0. For the same molecule, the “damage to plant (100=total damage to plant; 0=no damage to plant), ORYSA” value (rate 130, evaluated after 15 d) was 0, the “damage to plant (100=total damage to plant; 0=no damage to plant), ORYSA” value (rate 250, evaluated after 15 d) was 0 and the “damage to plant (100=total damage to plant; 0=no damage to plant), ORYSA” value (rate 500, evaluated after 15 d) was 20. The “damage to plant (100=total damage to plant; 0=no damage to plant), PANMI” value (rate 130, evaluated after 15 d) was 0, the “damage to plant (100=total damage to plant; 0=no damage to plant), PANMI” value (rate 250, evaluated after 15 d) was 0 and the “damage to plant (100=total damage to plant; 0=no damage to plant), PANMI” value (rate 500, evaluated after 15 d) was 0. The “damage to plant (100=total damage to plant; 0=no damage to plant), SETFA” value (rate 130, evaluated after 15 d) was 0, the “damage to plant (100=total damage to plant; 0=no damage to plant), SETFA” value (rate 250, evaluated after 15 d) was 0 and the “damage to plant (100=total damage to plant; 0=no damage to plant), SETFA” value (rate 500, evaluated after 15 d) was 60. For the same molecule, the “damage to plant (100=total damage to plant; 0=no damage to plant), SIDSP” value (rate 130, evaluated after 15 d) was 0, the “damage to plant (100=total damage to plant; 0=no damage to plant), SIDSP” value (rate 250, evaluated after 15 d) was 0 and the “damage to plant (100=total damage to plant; 0=no damage to plant), SIDSP” value (rate 500, evaluated after 15 d) was 0. The “damage to plant (100=total damage to plant; 0=no damage to plant), SORVU” value (rate 130, evaluated after 15 d) was 0, the “damage to plant (100=total damage to plant; 0=no damage to plant), SORVU” value (rate 250, evaluated after 15 d) was 0 and the “damage to plant (100=total damage to plant; 0=no damage to plant), SORVU” value (rate 500, evaluated after 15 d) was 0.

Reference: US20220281848A1, “PYRAZOLE-SUBSTITUTED PYRROLIDINONES AS HERBICIDES” (FMC Corporation, priority 2019, published 2022)
